According to patent US20260206759A1, “PYRAZOL-5-ETHER COMPOUND, AND PREPARATION METHOD THEREFOR AND USE THEREOF” (CAC NANTONG CHEMICAL CO., LTD., priority 2023, published 2026):

Key:
Assay type in all cases: in vivo
[1] = tested on: wheat powdery mildew (Blumeria graminis (DC.) Speer); assay: Whole-plant pot assay, control effect against wheat powdery mildew; conditions: spray on wheat leaves, inoculation 24 h after treatment, assessed 10 days after inoculation
Method: Various kinds of pathogens were tested with the compounds of the present application. Unless otherwise specified in the examples and the present application, the preparation method of samples is as follows: 10 mg of the compound was weighed and dissolved in 1 mL DMF to prepare a 10000 ppm stock solution, and the stock solution was diluted with 0.05% Tween-80 aqueous solution to the required concentrations for activity tests.
In this example, the control effects of the prepared pyrazol-5-ether compounds against wheat powdery mildew (Blumeria graminis (DC.) Speer) were tested using the following method.
A whole-plant pot assay was employed for screening. The pesticide formulation was uniformly sprayed onto wheat leaves at the first true leaf stage using a laryngeal atomizer, with three replicates per treatment. The treated plant was air-dried naturally indoors. At 24 hours post-treatment, wheat powdery mildew spores (collected approximately 10 days after inoculation) were evenly dusted onto the compound-treated wheat leaves. Disease assessment was conducted 10 days after spore inoculation when symptom development stabilized in the control group. The assessment results were recorded on a 100-0 scale, where ‘100’ indicates complete disease absence and ‘0’ represents maximum disease severity.

[2] = tested on: cucumber powdery mildew (Erysiphe cichoracearum); assay: Whole-plant pot assay, control effect against cucumber powdery mildew; conditions: 2.5 ppm, foliar spray on cucumber seedlings, inoculation 24 h after treatment
Method: In this example, the control effects of the prepared pyrazol-5-ether compounds against cucumber powdery mildew (Erysiphe cichoracearum) were tested using the following method.
(§1) A whole-plant pot assay was employed for screening. […] Greenhouse-cultivated cucumber seedlings at the two-leaf stage served as test hosts for cucumber powdery mildew (Erysiphe cichoracearum). The compounds of the present application were sprayed on the leaves at designed concentrations, and lank controls sprayed with water were also set, in triplicate. At 24 hours post-treatment, pathogen inoculation was conducted. After inoculation, the plants were maintained in controlled environment chamber for constant humidity culture (temperature: 25° C. day/20° C. night, relative humidity: 95%-99%). After 24 hours of incubation, the plants were transferred to the greenhouse. Control effect assessments were conducted on the compounds when disease symptoms fully developed in controls (typically one week). The assessment results were recorded on a 100-0 scale, where ‘100’ indicates complete disease absence and ‘0’ represents maximum disease severity.

[3] = tested on: soybean rust (Phakopsora pachyrhizi); assay: Whole-plant pot assay, control effect against soybean rust; conditions: foliar spray on soybean plants, inoculation 24 h after treatment
Method: In this example, the control effects of the prepared pyrazol-5-ether compounds against soybean rust (Phakopsora pachyrhizi) were tested using the following method.
as §1, with “soybean plants” for “cucumber seedlings”, “soybean rust (Phakopsora pachyrhizi).” for “cucumber powdery mildew (Erysiphe cichoracearum).”, “blank” for “lank”, “recorded according to the A Manual of Assessment Keys for Plant Diseases compiled by the American Phytopathological Society” for “recorded”

SMILES	control effect against wheat powdery mildew ([1]; 10 ppm)	control effect against wheat powdery mildew ([1]; 40 ppm)	control effect against cucumber powdery mildew [2]	control effect against soybean rust ([3]; 4 ppm)	control effect against soybean rust ([3]; 10 ppm)
CCN(C)C=Nc1cc(C)c(Oc2cc(C)nn2C)cc1Cl [Compound 132]	74.07%				
Cc1cc(Oc2cc(C(C)(C)C)nn2C)c(Cl)cc1/N=C/N1CCCC1 [KC2]	0%	0%	0%		
CCN(C)C=Nc1cc(C)c(Oc2c(C)c(C)nn2C)cc1C [Compound 143]	74.07%				
CCN(C)/C=N/c1cc(Cl)c(Oc2cc(C(C)(C)C)nn2C)cc1C [KC1]	0%	22.22%	0%		
CCN(C)/C=N/c1cc(C)c(Oc2cc(C(F)(F)F)nn2C)cc1C [Compound 16, (E)-N′-[4-(1-methyl-3-trifluoromethyl-1H-pyrazol-5-yloxy)-2,5-dimethylphenyl]-N-ethyl-N-met hylformamidine]	81.48%	96.30%			
CCN(C)/C=N/c1cc(C)c(Oc2ccn(-c3ccc(Cl)cc3)n2)cc1C [KC3]	0%	59.26%	22.22%	0%	22%
